Test results taken from patent EP0942911B1, “BENZOPYRANOPYRROLE AND BENZOPYRANOPYRIDINE ALPHA-1 ADRENERGIC COMPOUNDS” (Abbott Laboratories, priority 1996, dated 1998).
Counter-ions that a name gives are not always drawn. Like-named read-outs stand apart in the source and are kept apart here.

Tests used:
Assay in all cases: biochemical
[1] = target: T1, α-1A adrenoreceptor (rat submaxillary gland) (Rattus norvegicus, UniProt P43140); assay type: binding; conditions: read-out: Radioligand Binding (Ki, nM) 1A (Rat)
T1 sequence (P43140 1-466): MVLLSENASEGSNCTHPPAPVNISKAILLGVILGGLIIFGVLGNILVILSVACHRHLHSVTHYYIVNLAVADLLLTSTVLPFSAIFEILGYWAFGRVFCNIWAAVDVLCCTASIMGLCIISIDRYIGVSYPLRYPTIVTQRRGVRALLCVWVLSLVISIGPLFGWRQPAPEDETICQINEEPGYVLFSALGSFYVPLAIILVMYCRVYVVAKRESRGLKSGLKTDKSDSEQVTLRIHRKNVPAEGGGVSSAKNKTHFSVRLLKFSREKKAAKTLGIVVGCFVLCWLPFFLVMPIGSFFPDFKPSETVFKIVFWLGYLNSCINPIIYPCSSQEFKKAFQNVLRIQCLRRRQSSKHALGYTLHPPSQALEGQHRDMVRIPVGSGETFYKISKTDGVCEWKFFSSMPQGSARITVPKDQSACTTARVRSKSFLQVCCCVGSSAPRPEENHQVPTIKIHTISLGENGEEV
How it was run: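 Radioligand binding to α-1A sites in membrane homogenates of rat submaxillary gland, run after Greengrass and Bremner. Bound radioactivity counted by liquid scintillation.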

α-1a adrenoreceptor = target: T2, α-1a adrenoreceptor (Bos taurus, UniProt P18130); assay type: binding, bovine; conditions: read-out: Radioligand Binding (Ki, nM) 1a (Bovine)
T2 sequence (P18130 1-466): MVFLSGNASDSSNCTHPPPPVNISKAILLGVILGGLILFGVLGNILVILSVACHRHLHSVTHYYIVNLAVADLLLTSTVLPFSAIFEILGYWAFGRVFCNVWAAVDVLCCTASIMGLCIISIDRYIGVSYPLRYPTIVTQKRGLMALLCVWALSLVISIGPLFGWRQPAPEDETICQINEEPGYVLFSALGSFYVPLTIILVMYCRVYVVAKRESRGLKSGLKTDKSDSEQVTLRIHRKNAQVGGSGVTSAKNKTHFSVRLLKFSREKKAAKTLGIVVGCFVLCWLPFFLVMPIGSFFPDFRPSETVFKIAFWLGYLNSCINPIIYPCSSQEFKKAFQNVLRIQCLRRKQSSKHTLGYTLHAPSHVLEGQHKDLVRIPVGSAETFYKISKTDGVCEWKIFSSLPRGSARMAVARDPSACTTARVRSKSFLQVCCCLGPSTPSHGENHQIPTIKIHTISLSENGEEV
How it was run: (§1)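 Cloned α-1a, α-1b and α-1d adrenoreceptors stably expressed in mouse LTK fibroblasts; membranes prepared in 50 mM Tris-HCl, pH 7.4. Radioligand binding per Greengrass and Bremner method, scintillation counting. The α-1A subtype used rat submaxillary gland membranes.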

α-1b adrenoreceptor = target: T3, α-1b adrenoreceptor (Mesocricetus auratus, UniProt P18841); assay type: binding, hamster; conditions: read-out: Radioligand Binding (Ki, nM) 1b (Hamster)
T3 sequence (P18841 1-515): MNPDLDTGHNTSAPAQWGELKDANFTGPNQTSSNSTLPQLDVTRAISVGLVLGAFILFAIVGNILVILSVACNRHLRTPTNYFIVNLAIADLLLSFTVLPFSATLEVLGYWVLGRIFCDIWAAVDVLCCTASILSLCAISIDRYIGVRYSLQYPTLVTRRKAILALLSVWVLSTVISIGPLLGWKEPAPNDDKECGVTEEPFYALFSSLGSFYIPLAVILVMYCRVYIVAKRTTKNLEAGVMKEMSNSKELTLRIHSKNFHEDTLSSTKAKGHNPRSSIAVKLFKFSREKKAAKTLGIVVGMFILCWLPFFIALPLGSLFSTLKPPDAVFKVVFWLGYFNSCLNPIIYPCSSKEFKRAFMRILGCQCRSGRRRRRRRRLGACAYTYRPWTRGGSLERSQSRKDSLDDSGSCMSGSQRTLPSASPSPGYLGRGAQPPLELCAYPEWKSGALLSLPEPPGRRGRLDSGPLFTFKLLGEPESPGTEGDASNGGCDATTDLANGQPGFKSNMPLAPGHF
How it was run: as §1

[2] = [3H]-prazosin radioligand, rat submaxillary gland membranes
[3] = [3H]-prazosin radioligand, cloned receptor in LTK cell membranes

Compound | Ki [1, 2] [nM] | Ki (α-1a adrenoreceptor; [3]) [nM] | Ki (α-1b adrenoreceptor; [3]) [nM] | Ki [1] [nM] | Ki (α-1a adrenoreceptor) [nM] | Ki (α-1b adrenoreceptor) [nM]
COc1ccc2sc3c(=O)n(CCCCN4C[C@H]5COc6cccc(OC)c6[C@@H]5C4)c(=O)[nH]c3c2n1 [Example 26, 3-[4-((3aS,9bR)-trans-9-Methoxy-1,2,3,3a,4,9b-hexahydro-[1]-benzopyrano[3,4-c]pyrrol-2-yl)butyl]-8-methoxy-pyrido[2',3':4,5]thieno[3,2-d]pyrimidine-2,4(1H,3H)-dione hydrochloride] | 0.09 | 0.022 | 0.376 | – | – | –
COc1cccc2c1[C@@H]1CN(CCCCn3c(=O)[nH]c4c(sc5c(OC)ccnc54)c3=O)C[C@@H]1CO2 [Example 18, 3-[4-((3aR,9bR)-cis-9-Methoxy-1,2,3,3a,4,9b-hexahydro[1]-benzopyrano[3,4-c]pyrrol-2-yl)butyl]-6-methoxy-pyrido[2',3':4,5]thieno[3,2-d]pyrimidine-2,4(1H,3H)-dione dihydrochloride] | 0.284 | 0.069 | 5.06 | – | – | –
COc1cccc2c1[C@@H]1CN(CCCCn3c(=O)[nH]c4c(sc5cccnc54)c3=O)C[C@@H]1CO2 [Example 1, 3-[4-((3aR,9bR)-cis-9-Methoxy-1,2,3,3a,4,9b-hexahydro-[1]-benzopyrano[3,4-c]pyrrol-2-yl)butyl]-pyrido[2',3':4,5]thieno[3,2-d]pyrimidine-2,4(1H,3H)-dione hydrochloride] | 0.045 | 0.024 | 1.14 | – | – | –
COc1cccc2c1[C@H]1CN(CCCCn3c(=O)[nH]c4c(sc5nccnc54)c3=O)C[C@@H]1CO2.Cl.Cl (racemic) [Example 74, 3-[4-((±)-trans-9-Methoxy-1,2,3,3a,4,9b-hexahydro-[1]-benzopyrano[3,4-c]pyrrol-2-yl)butyl]-pyrazino[2',3':4,5]thieno[3,2-d]pyrimidine-2,4(1H,3H)-dione dihydrochloride] | – | – | – | 3.29 | 1.53 | 14.3
COc1cccc2c1[C@@H]1CN(CCCCn3c(=O)[nH]c4c(sc5ccncc54)c3=O)C[C@H]1CO2 [Example 41, 3-[4-((3aS,9bR)-trans-9-Methoxy-1,2,3,3a,4,9b-hexahydro-[1]-benzopyrano[3,4-c]pyrrol-2-yl)butyl]-pyrido[3',4':4,5]thieno[3,2-d]pyrimidine-2,4(1H,3H)-dione dihydrochloride] | 0.069 | 0.031 | 0.603 | – | – | –
COc1ccc2c(c1)OC[C@H]1CN(CCCn3c(=O)[nH]c4c(sc5ccccc54)c3=O)C[C@@H]21.Cl (racemic) [Example 64, 3-[3-((±)-cis-7-Methoxy-1,2,3,3a,4,9b-hexahydro-[1]-benzopyrano[3,4-c]pyrrol-2-yl)propyl]-[1]benzthieno[3,2-d]pyrimidine-2,4(1H,3H)-dione hydrochloride] | – | – | – | 4.2 | 1.63 | 9.3
COc1cccc2c1[C@@H]1CN(CCCCn3c(=O)[nH]c4c(sc5c(OC)ccnc54)c3=O)C[C@H]1CO2 [Example 17, 3-[4-((3aS,9bR)-trans-9-Methoxy-1,2,3,3a,4,9b-hexahydro-[1]-benzopyrano[3,4-c]pyrrol-2-yl)butyl]-6-methoxy-pyrido[2',3':4,5]thieno[3,2-d]pyrimidine-2,4(1H,3H)-dione dihydrochloride] | 0.175 | 0.068 | 1.25 | – | – | –
COc1ccc2sc3c(=O)n(CCCCN4C[C@@H]5COc6cccc(OC)c6[C@@H]5C4)c(=O)[nH]c3c2n1 [Example 30, 3-[4-((3aR,9bR)-cis-9-Methoxy-1,2,3,3a,4,9b-hexahydro-[1]-benzopyrano[3,4-c]pyrrol-2-yl)butyl]-8-methoxy-pyrido[2',3':4,5]thieno[3,2-d]pyrimidine-2,4(1H,3H)-dione hydrochloride] | 0.264 | 0.066 | 2.67 | – | – | –
COc1cccc2c1[C@@H]1CN(CCCCn3c(=O)[nH]c4c(sc5cnccc54)c3=O)C[C@H]1CO2 [Example 42, 3-[4-((3aS,9bR)-trans-9-Methoxy-1,2,3,3a,4,9b-hexahydro-[1]-benzopyrano[3,4-c]pyrrol-2-yl)butyl]-pyrido[4',3':4,5]thieno[3,2-d]pyrimidine-2,4(1H,3H)-dione dihydrochloride] | 0.073 | 0.028 | 0.829 | – | – | –
COc1cccc2c1[C@H]1CN(CCCCn3c(=O)[nH]c4c(sc5cccnc54)c3=O)C[C@H]1CO2 [Example 2, 3-[4-((3aS,9bS)-cis-9-Methoxy-1,2,3,3a,4,9b-hexahydro-[1]-benzopyrano[3,4-c]pyrrol-2-yl)butyl]-pyrido[2',3':4,5]thieno[3,2-d]pyrimidine-2,4(1H,3H)-dione hydrochloride] | 0.95 | 0.193 | 9.23 | – | – | –
COc1cccc2c1[C@@H]1CN(CCCCn3c(=O)[nH]c4c(sc5cnccc54)c3=O)C[C@@H]1CO2 [Example 29, 3-[4-((3aR,9bR)-cis-9-Methoxy-1,2,3,3a,4,9b-hexahydro-[1]-benzopyrano[3,4-c]pyrrol-2-yl)butyl]-pyrido[4',3':4,5]thieno[3,2-d]pyrimidine-2,4(1H,3H)-dione dihydrochloride] | 0.252 | 0.095 | 3.69 | – | – | –
COc1ccc2c(c1)OC[C@H]1CN(CCn3c(=O)[nH]c4c(sc5ccccc54)c3=O)C[C@@H]21.Cl (racemic) [Example 63, 3-[2-((±)-cis-7-Methoxy-1,2,3,3a,4,9b-hexahydro-[1]-benzopyrano[3,4-c]pyrrol-2-yl)ethyl]-[1]benzthieno[3,2-d]pyrimidine-2,4(1H,3H)-dione hydrochloride] | – | – | – | 51.2 | 11.2 | 92.2
COc1cccc2c1[C@@H]1CN(CCCCn3c(=O)[nH]c4c(sc5ccncc54)c3=O)C[C@@H]1CO2 [Example 28, 3-[4-((3aR,9bR)-cis-9-Methoxy-1,2,3,3a,4,9b-hexahydro-[1]-benzopyrano[3,4-c]pyrrol-2-yl)butyl]-pyrido[3',4':4,5]thieno[3,2-d]pyrimidine-2,4(1H,3H)-dione dihydrochloride] | 0.273 | 0.092 | 3.69 | – | – | –
COc1cccc2c1OC[C@H]1CN(CCn3c(=O)[nH]c4c(sc5ccccc54)c3=O)C[C@@H]21.Cl (racemic) [Example 67, 3-[2-((±)-cis-6-Methoxy-1,2,3,3a,4,9b-hexahydro-[1]-benzopyrano[3,4-c]pyrrol-2-yl)ethyl]-[1]benzthieno[3,2-d]pyrimidine-2,4(1H,3H)-dione hydrochloride] | – | – | – | 116 | 77.2 | 248
3-[4-((3aR,9bR)-cis-9-Methoxy-1,2,3,3a,4,9b-hexahydro-[1]-benzopyrano[3,4-c]pyrrol-2-yl]butyl]-7-methoxy-pyrido[3',2':4,5]thieno[3,2-d]pyrimidine-2,4(1H,3H)-dione hydrochloride [Example 33] | 0.811 | 0.082 | 10.5 | – | – | –
COc1cccc2c1[C@@H]1CN(CCCCn3c(=O)[nH]c4c(sc5ccc(OC(C)C)nc54)c3=O)C[C@H]1CO2 [Example 51, 3-[4-((3aS,9bR)-trans-9-Methoxy-1,2,3,3a,4,9b-hexahydro-[1]-benzopyrano[3,4-c]pyrrol-2-yl)butyl]-8-isopropoxy-pyrido[2',3':4,5]thieno[3,2-d]pyrimidine-2,4(1H,3H)-dione hydrochloride] | 1.19 | 0.064 | 0.868 | – | – | –
